Measured values as given in ChEMBL document CHEMBL4699540, “Discovery and structure activity relationships of 7-benzyl triazolopyridines as stable, selective, and reversible inhibitors of myeloperoxidase” (Bioorg Med Chem, 2020).

Columns and labels:
[1] = biological target: T1, Myeloperoxidase (Mus musculus, UniProt P11247); assay: Inhibition of PMA-induced MPO in mouse Neutrophil incubated for 3 mins by luminometry; type: tissue-based
T1 sequence (P11247 whole entry): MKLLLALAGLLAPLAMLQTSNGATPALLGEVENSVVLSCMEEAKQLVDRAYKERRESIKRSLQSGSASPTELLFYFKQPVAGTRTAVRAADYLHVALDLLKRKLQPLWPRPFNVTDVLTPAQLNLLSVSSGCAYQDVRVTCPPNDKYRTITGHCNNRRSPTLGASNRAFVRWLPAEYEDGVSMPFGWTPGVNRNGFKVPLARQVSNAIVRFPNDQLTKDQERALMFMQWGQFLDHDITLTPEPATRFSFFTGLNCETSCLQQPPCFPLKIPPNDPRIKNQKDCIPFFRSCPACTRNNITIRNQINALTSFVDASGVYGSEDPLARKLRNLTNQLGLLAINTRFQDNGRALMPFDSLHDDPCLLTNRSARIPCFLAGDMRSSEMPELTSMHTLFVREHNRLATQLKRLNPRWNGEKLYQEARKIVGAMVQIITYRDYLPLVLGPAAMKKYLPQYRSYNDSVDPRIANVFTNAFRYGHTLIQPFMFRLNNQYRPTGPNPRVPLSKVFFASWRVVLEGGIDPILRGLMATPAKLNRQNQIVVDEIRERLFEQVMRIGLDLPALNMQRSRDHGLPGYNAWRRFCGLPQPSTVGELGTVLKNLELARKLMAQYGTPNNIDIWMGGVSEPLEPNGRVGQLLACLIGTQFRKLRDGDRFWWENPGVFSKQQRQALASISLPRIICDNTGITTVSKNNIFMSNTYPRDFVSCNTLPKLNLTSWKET

[2] = biological target: T2, Myeloperoxidase (Homo sapiens, UniProt P05164); assay: Inhibition of recombinant human MPO incubated for 10 mins by amplex red dye based assay
T2 sequence (P05164 whole entry): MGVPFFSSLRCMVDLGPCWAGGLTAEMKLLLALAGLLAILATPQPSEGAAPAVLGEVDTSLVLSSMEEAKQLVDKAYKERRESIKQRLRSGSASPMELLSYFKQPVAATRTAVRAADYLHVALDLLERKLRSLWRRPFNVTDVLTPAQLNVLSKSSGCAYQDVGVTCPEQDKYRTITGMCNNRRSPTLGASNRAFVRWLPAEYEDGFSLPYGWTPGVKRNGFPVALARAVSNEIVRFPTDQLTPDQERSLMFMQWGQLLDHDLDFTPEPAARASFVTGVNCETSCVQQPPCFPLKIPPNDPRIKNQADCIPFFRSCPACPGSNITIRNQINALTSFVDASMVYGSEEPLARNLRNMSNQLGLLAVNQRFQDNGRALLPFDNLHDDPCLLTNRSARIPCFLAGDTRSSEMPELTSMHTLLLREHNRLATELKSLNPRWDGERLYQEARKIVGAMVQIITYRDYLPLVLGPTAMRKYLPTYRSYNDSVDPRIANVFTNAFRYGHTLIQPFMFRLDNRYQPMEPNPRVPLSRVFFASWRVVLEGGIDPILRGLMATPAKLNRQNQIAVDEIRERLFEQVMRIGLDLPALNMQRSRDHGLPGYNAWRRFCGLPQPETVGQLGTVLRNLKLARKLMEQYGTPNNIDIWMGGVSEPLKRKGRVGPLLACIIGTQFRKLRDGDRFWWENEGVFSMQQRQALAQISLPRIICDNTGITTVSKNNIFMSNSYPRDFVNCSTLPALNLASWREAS

[3] = Metabolic stability in human liver microsomes assessed as compound remaining; type: ADME, Microsome
[4] = biological target: T3, Cytochrome P450 1A2 (Homo sapiens, UniProt P05177); assay: Inhibition of CYP1A2 (unknown origin); type: ADME
T3 sequence (P05177 whole entry): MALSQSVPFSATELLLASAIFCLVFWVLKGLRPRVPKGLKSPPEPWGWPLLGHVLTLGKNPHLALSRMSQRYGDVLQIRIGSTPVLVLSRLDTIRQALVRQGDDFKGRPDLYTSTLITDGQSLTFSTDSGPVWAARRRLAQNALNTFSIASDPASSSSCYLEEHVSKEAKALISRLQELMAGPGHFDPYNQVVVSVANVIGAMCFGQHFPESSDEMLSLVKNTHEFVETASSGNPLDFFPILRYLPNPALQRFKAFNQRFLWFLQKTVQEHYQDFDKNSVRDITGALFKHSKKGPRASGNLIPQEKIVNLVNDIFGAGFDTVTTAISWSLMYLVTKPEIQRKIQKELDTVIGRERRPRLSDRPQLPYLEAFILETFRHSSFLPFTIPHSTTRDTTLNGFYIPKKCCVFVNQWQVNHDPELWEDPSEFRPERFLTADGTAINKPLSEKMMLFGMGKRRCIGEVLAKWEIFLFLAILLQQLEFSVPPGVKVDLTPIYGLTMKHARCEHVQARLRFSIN

[5] = biological target: T4, Cytochrome P450 2C8 (Homo sapiens, UniProt P10632); assay: Inhibition of CYP2C8 (unknown origin); type: ADME
T4 sequence (P10632 whole entry): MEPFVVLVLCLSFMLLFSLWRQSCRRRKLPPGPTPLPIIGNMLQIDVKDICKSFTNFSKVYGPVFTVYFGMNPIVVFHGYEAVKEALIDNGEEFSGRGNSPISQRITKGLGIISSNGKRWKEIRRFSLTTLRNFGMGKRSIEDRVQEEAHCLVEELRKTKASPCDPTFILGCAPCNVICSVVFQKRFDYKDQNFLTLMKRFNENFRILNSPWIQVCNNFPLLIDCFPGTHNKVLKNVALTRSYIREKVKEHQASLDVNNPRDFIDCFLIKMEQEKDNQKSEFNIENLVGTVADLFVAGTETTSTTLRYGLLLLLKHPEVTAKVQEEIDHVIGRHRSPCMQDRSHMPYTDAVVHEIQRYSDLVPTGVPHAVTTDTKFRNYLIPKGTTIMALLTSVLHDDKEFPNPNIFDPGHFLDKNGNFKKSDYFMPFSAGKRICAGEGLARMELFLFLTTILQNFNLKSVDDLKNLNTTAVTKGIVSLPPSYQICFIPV

[6] = Metabolic stability in mouse liver microsomes assessed as compound remaining; type: ADME, Microsome
[7] = biological target: Cytochrome P450 3A4 (Homo sapiens, UniProt P08684); assay: Inhibition of CYP3A4 (unknown origin); type: ADME
Chain of Cytochrome P450 3A4 (P08684 whole entry): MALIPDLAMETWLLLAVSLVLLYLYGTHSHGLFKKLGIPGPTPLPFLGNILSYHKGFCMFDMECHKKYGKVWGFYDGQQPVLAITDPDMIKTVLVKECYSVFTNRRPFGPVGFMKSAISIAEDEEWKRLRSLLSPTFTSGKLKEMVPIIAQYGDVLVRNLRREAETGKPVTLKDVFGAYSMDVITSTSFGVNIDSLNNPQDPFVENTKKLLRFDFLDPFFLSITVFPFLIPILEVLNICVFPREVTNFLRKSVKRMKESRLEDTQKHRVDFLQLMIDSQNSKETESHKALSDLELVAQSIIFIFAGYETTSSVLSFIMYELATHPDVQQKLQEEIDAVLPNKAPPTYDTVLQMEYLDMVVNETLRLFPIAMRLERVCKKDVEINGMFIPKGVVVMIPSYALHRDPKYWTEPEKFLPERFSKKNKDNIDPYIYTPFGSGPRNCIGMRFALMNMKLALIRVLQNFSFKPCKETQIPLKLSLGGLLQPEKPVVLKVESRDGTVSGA

[8] = biological target: T5, Cytochrome P450 2B6 (Homo sapiens, UniProt P20813); assay: Inhibition of CYP2B6 (unknown origin); type: ADME
T5 sequence (P20813 whole entry): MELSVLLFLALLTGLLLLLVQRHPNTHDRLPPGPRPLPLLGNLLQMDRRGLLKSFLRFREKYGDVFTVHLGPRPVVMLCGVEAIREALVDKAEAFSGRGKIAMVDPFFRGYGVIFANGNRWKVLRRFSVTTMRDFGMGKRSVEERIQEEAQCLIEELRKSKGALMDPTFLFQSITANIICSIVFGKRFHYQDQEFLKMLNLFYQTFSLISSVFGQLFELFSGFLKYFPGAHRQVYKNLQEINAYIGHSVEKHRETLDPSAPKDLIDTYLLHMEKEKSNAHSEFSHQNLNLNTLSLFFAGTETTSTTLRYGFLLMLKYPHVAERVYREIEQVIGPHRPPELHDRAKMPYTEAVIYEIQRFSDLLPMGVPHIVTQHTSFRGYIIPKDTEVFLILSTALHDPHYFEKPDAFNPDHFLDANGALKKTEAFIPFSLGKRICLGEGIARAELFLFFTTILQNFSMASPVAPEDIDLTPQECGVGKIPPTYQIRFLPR

[9] = Permeability of compound at pH 5.5 by PAMPA assay; type: ADME; details: read-out: permeability
[10] = test system: Neutrophil; details: Homo sapiens, time 5.0 min
[11] = Dissociation constant, pKa of the compound; type: physicochemical
[12] = Half life in CD-1 mouse at 3 mg/kg, po by LC/MS analysis; type: ADME, organism-based; details: in vivo
[13] = biological target: T6, Methylated-DNA--protein-cysteine methyltransferase (Homo sapiens, UniProt P16455); assay: Inhibition of human MGMT using 06-benzylguanine as substrate incubated for 30 mins by LC/MS analysis; details: 0.5 h
T6 sequence (P16455 whole entry): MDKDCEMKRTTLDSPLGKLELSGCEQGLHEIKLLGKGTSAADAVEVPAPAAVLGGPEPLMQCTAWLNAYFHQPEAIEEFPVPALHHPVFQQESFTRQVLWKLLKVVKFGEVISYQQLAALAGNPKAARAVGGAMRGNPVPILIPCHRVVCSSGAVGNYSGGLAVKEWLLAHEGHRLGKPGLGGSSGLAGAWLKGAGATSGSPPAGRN

[14] = Permeability of compound at pH 7.4 by PAMPA assay; type: ADME; details: read-out: permeability
[15] = Binding affinity to human neutrophil MPO delta (1-95) measured for 5 mins by SPR assay
[16] = Metabolic stability in rat liver microsomes assessed as compound remaining; type: ADME, Microsome
[17] = AUCtot in CD-1 mouse at 3 mg/kg, po by LC/MS analysis; type: ADME, organism-based; set-up: time AUCmax, route oral, dose 3 mg/kg; details: in vivo
[18] = biological target: Cytochrome P450 2D6 (Homo sapiens, UniProt P10635); assay: Inhibition of CYP2D6 (unknown origin); type: ADME
Chain of Cytochrome P450 2D6 (P10635 whole entry): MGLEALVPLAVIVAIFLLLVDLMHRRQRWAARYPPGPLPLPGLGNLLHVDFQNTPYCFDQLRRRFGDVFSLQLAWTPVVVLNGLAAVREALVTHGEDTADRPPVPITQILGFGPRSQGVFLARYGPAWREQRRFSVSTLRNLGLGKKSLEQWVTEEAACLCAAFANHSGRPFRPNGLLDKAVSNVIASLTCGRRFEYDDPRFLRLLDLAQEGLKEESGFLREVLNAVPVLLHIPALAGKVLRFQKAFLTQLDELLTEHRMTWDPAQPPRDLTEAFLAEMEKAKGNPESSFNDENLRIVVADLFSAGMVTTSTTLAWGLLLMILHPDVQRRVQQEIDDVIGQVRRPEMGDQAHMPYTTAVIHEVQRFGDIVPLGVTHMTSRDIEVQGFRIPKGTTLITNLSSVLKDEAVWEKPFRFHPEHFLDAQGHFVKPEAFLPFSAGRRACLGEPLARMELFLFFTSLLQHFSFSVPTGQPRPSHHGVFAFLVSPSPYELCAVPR

| Structure (SMILES) | IC50 [1] | IC50 [2] | Stabilty [3] | IC50 [4] | IC50 [5] | Stabilty [6] | IC50 [7] | IC50 [8] | Papp [9] | Ka [10] | Kdiss [10] | pKa [11] | half-life [12] | inhibition (INH) [13] | Papp [14] | Kd [15] | Stabilty [16] | AUC [17] | IC50 [18] |
| --- | --- | --- | --- | --- | --- | --- | --- | --- | --- | --- | --- | --- | --- | --- | --- | --- | --- | --- | --- |
| O=c1[nH]c(=S)n(C[C@H]2CCCO2)c2nc[nH]c12 | 32.5 µM | – | – | – | – | – | – | – | – | – | – | – | – | – | – | – | – | – | – |
| Nc1nc(OCc2ccccc2)c2[nH]nnc2n1 | – | 0.103 µM | 93% | > 10 µM | > 10 µM | 80% | > 10 µM | > 10 µM | 42 ×10⁻⁶ cm/s | 1.3 10^3/M.s | 0.72 10^-3/s | 6.6 | 2.4 h | Active | 16.7 ×10⁻⁶ cm/s | 0.547 µM | 95% | 22.2 µM·h | > 10 µM |
